In ChEMBL document CHEMBL5241092, “The antibacterial activity of fluoroquinolone derivatives: An update (2018-2021)” (2021):
Values after ≈ are worked out from the molar mass of the structure shown.

What was measured:
Format in all cases: functional
Listeria monocytogenes = experiment: Antibacterial activity against Listeria monocytogenes
Staphylococcus aureus = experiment: Antibacterial activity against Staphylococcus aureus
Klebsiella pneumoniae = experiment: Antibacterial activity against Klebsiella pneumoniae
[1] = test system: Yersinia pseudotuberculosis; experiment: Antibacterial activity against Yersinia pseudotuberculosis
[2] = test system: Lactobacillus acidophilus; experiment: Antibacterial activity against Lactobacillus acidophilus
Pseudomonas aeruginosa = experiment: Antibacterial activity against Pseudomonas aeruginosa
Escherichia coli = experiment: Antibacterial activity against Escherichia coli
Enterococcus faecalis = experiment: Antibacterial activity against Enterococcus faecalis
Bacillus cereus = experiment: Antibacterial activity against Bacillus cereus
[3] = test system: Staphylococcus epidermidis; experiment: Antibacterial activity against Staphylococcus epidermidis
Bacillus subtilis = experiment: Antibacterial activity against Bacillus subtilis

Row | SMILES | MIC (Listeria monocytogenes) [µg/mL] | MIC (Staphylococcus aureus) [µg/mL] | MIC (Klebsiella pneumoniae) [µg/mL] | MIC [1] [µg/mL] | MIC [2] [µg/mL] | MIC (Pseudomonas aeruginosa) [µg/mL] | MIC (Escherichia coli) [µg/mL] | MIC (Enterococcus faecalis) [µg/mL] | MIC (Bacillus cereus) [µg/mL] | MIC [3] [µg/mL] | MIC (Bacillus subtilis) [µg/mL] | MIC90 [3] [µg/mL] | MIC90 (Staphylococcus aureus) [µg/mL] | MIC90 (Pseudomonas aeruginosa) [µg/mL] | MIC90 (Escherichia coli) [µg/mL]
1 | COc1c(N2C[C@H]3CCCN(Cc4ccc([N+](=O)[O-])cc4)[C@H]3C2)c(F)cc2c(=O)c(C(=O)O)cn(C3CC3)c12 | < 2.39 | < 2.39 | < 2.39 | < 2.39 | < 2.39 | < 2.39 | < 2.39 | < 2.39 | – | – | – | – | – | – | –
2 | COc1c(N2C[C@H]3CCCN(C(=O)c4ccc(Br)cc4)[C@H]3C2)c(F)cc2c(=O)c(C(=O)O)cn(C3CC3)c12 | ≤ 1.23 | ≤ 1.23 | < 1.23 | < 1.23 | < 1.23 | < 1.23 | < 1.23 | ≤ 1.23 | ≤ 1.23 | – | – | – | – | – | –
3 | O=C(O)c1cn(-c2ccc(F)cc2)c2cc(N3CCN(C/C(=N/O)c4ccccc4)CC3)c(F)cc2c1=O | – | < 0.125 | – | – | – | – | – | – | – | < 0.125 | < 0.125 | – | – | – | –
4 | COc1ccc(CN2CCC[C@@H]3CN(c4c(F)cc5c(=O)c(C(=O)O)cn(C6CC6)c5c4OC)C[C@@H]32)cc1 | < 2.39 | < 2.39 | < 2.39 | < 2.39 | < 2.39 | < 2.39 | < 2.39 | < 2.39 | – | – | – | – | – | – | –
5 | COc1c(N2C[C@H]3CCCN(S(=O)(=O)c4ccc([N+](=O)[O-])cc4)[C@H]3C2)c(F)cc2c(=O)c(C(=O)O)cn(C3CC3)c12 | < 2.42 | < 2.42 | < 2.42 | < 2.42 | < 2.42 | < 2.42 | < 2.42 | < 2.42 | – | – | – | – | – | – | –
6 | COc1ccc(C(=O)N2CCC[C@@H]3CN(c4c(F)cc5c(=O)c(C(=O)O)cn(C6CC6)c5c4OC)C[C@@H]32)cc1 | ≤ 1.23 | ≤ 1.23 | < 1.23 | < 1.23 | < 1.23 | < 1.23 | < 1.23 | ≤ 1.23 | ≤ 1.23 | – | – | – | – | – | –
7 | CCN1CCN(c2cc3c(cc2F)c(=O)c(C(=O)O)cn3CC)CC1 | – | 1.1 (≈ 3.17 µM) | 1.1 (≈ 3.17 µM) | – | – | 1.1 (≈ 3.17 µM) | 1.1 (≈ 3.17 µM) | – | – | – | – | – | – | – | –
8 | COc1c(N2C[C@H]3CCCN(Cc4ccc(Br)cc4)[C@H]3C2)c(F)cc2c(=O)c(C(=O)O)cn(C3CC3)c12 | < 2.39 | < 2.39 | < 2.39 | < 2.39 | < 2.39 | < 2.39 | < 2.39 | < 2.39 | – | – | – | – | – | – | –
9 | COc1c(N2C[C@H]3CCCN(C(=O)c4ccc([N+](=O)[O-])cc4)[C@H]3C2)c(F)cc2c(=O)c(C(=O)O)cn(C3CC3)c12 | ≤ 1.23 | ≤ 1.23 | < 1.23 | < 1.23 | < 1.23 | < 1.23 | < 1.23 | ≤ 1.23 | ≤ 1.23 | – | – | – | – | – | –
10 | COc1c(N2C[C@H]3CCCN(C(=O)c4ccc(F)cc4)[C@H]3C2)c(F)cc2c(=O)c(C(=O)O)cn(C3CC3)c12 | ≤ 1.23 | ≤ 1.23 | < 1.23 | < 1.23 | < 1.23 | < 1.23 | < 1.23 | ≤ 1.23 | ≤ 1.23 | – | – | – | – | – | –
11 | COc1c(N2C[C@H]3CCCN(Cc4ccccc4)[C@H]3C2)c(F)cc2c(=O)c(C(=O)O)cn(C3CC3)c12 | < 2.39 | < 2.39 | < 2.39 | < 2.39 | < 2.39 | < 2.39 | < 2.39 | < 2.39 | – | – | – | – | – | – | –
12 | COc1c(N2C[C@H]3CCCN(S(=O)(=O)c4ccccc4)[C@H]3C2)c(F)cc2c(=O)c(C(=O)O)cn(C3CC3)c12 | < 2.42 | < 2.42 | < 2.42 | < 2.42 | < 2.42 | < 2.42 | < 2.42 | < 2.42 | – | – | – | – | – | – | –
13 | C=Cn1c(SCC(=O)N2CCN(c3cc4c(cc3F)c(=O)c(C(=O)O)cn4C3CC3)CC2)nnc1-c1ccccc1 | – | 1.7 (≈ 2.96 µM) | 1.7 (≈ 2.96 µM) | – | – | 1.42 (≈ 2.47 µM) | 1.7 (≈ 2.96 µM) | – | – | – | – | – | – | – | –
14 | CCn1cc(C(=O)O)c(=O)c2cc(F)c(N3CCN(CCC(=O)Nc4ccc(/C(C)=N\OC)cc4)CC3)cc21 | – | – | > 50 | – | – | – | – | – | – | – | – | – | – | – | –
15 | CC[C@H](C)[C@H](NC(=O)[C@H](CCCCN)NC(=O)[C@H](CCCCN)NC(=O)[C@H](C)NC(=O)[C@H](CC(C)C)NC(=O)[C@H](C)NC(=O)[C@H](C)NC(=O)[C@H](CC(C)C)NC(=O)[C@H](C)NC(=O)[C@H](CCCCN)NC(=O)[C@H](CC(C)C)NC(=O)[C@H](CC(N)=O)NC(=O)[C@@H](NC(=O)[C@H](CCCCN)NC(=O)CNC(=O)[C@H](CC(C)C)NC(=O)[C@H](CC(C)C)NC(=O)[C@H](Cc1ccc(O)cc1)NC(=O)CNC(=O)[C@H](C)NC(=O)CCSSCCC(=O)N1CCN(c2cc3c(cc2F)c(=O)c(C(=O)O)cn3C2CC2)CC1)[C@@H](C)CC)C(=O)N[C@@H](CC(C)C)C(N)=O | – | – | – | – | – | – | – | – | – | – | – | 0.025 (≈ 0.0093 µM) | 0.025 (≈ 0.0093 µM) | 0.025 (≈ 0.0093 µM) | 0.025 (≈ 0.0093 µM)
16 | CCn1c(S)nnc1CN1CCN(c2cc3c(cc2F)c(=O)c(C(=O)O)cn3CC)CC1 | – | < 0.24 | – | < 0.24 | – | < 0.24 | < 0.24 | < 0.24 | < 0.24 | – | – | – | – | – | –
17 | COc1c(N2C[C@H]3CCCN(C(=O)c4ccc(Cl)cc4)[C@H]3C2)c(F)cc2c(=O)c(C(=O)O)cn(C3CC3)c12 | ≤ 1.23 | ≤ 1.23 | < 1.23 | < 1.23 | < 1.23 | < 1.23 | < 1.23 | ≤ 1.23 | ≤ 1.23 | – | – | – | – | – | –
